How the values were obtained:
[1] = tested on: barnyardgrass; experiment: Test A preemergence; format: in vivo, Echinochloa crus-galli; details: preemergence
Procedure, shortened: (§1)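 Injury readout: eye-scored versus untreated controls, 0 to 100. Exposure period: ~10 days, greenhouse. Application: soil-directed spray over sown seed (pre) or spray on seedlings 2–10 cm tall with one or two leaves (post), compound carried in non-phytotoxic solvent including surfactant.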

[2] = tested on: corn; experiment: Test A preemergence; format: in vivo, Zea mays; details: preemergence; for Corn plant response rating (0 to 100 scale): visual injury approx. 10 days after treatment
Procedure, shortened: as §1

[3] = tested on: barnyardgrass; experiment: Test A postemergence; format: in vivo, Echinochloa crus-galli
Procedure, shortened: as §1

[4] = tested on: velvetleaf; experiment: Test A postemergence; format: in vivo, Abutilon theophrasti
Procedure, shortened: as §1

[5] = tested on: wheat; experiment: Test A postemergence; format: in vivo, Triticum aestivum
Procedure, shortened: as §1

[6] = tested on: sedge, umbrella; experiment: Test B flood; format: in vivo, Cyperus difformis; details: 250 g ai/ha, visual rating on 0 to 100 scale (0 no effect, 100 complete control), 13 to 15 days
Procedure, shortened: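 2-leaf plants; pots flooded 3 cm over soil; compound added to paddy water, depth kept constant. Greenhouse 13–15 d. Visual rating vs controls, 0–100 scale (100 = complete control); dash = no result.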

[7] = tested on: ryegrass, Italian; experiment: Test C preemergence; format: in vivo, Lolium multiflorum; details: for Ryegrass, Italian plant response rating / Plant response rating, Ryegrass, Italian: preemergence; for Plant response rating, Ryegrass, Italian: 125 g ai/ha, scale 0 to 100, 0 = no effect, 100 = complete control
Procedure, shortened: (§2)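 Visual rating, 0–100 scale (0 no effect, 100 complete control), vs untreated controls after 13–15 d greenhouse. Pre: seeds in loam/sand, treated at sowing. Post: plants in peat-based mix, 1- to 4-leaf (2–18 cm). Solvent + surfactant formulation, non-phytotoxic.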

[8] = tested on: pigweed; experiment: Test C preemergence; format: in vivo, Amaranthus retroflexus; details: for Pigweed plant response rating / Plant response rating, Pigweed: preemergence; for Plant response rating, Pigweed: 125 g ai/ha, scale 0 to 100, 0 = no effect, 100 = complete control
Procedure, shortened: as §2

[9] = tested on: soybean; experiment: Test C preemergence; format: in vivo, Glycine max; details: for Soybean plant response rating / Plant response rating, Soybean: preemergence; for Plant response rating, Soybean: 125 g ai/ha, scale 0 to 100, 0 = no effect, 100 = complete control
Procedure, shortened: as §2

[10] = tested on: waterhemp; experiment: Test C preemergence; format: in vivo, Amaranthus rudis; details: for Waterhemp plant response rating / Plant response rating, Waterhemp: preemergence; for Plant response rating, Waterhemp: 125 g ai/ha, scale 0 to 100, 0 = no effect, 100 = complete control
Procedure, shortened: as §2

[11] = tested on: ryegrass, Italian; experiment: Test C postemergence; format: in vivo, Lolium multiflorum; details: for Plant response rating (scale of 0 to 100 where 0 is no effect and 100 is complete control), Ryegrass, Italian: Postemergence, 31 g ai/ha, visually evaluated after 13 to 15 days
Procedure, shortened: as §2

[12] = tested on: johnsongrass; experiment: Test C postemergence; format: in vivo, Sorghum halepense; details: for Plant response rating (scale of 0 to 100 where 0 is no effect and 100 is complete control), Johnsongrass: Postemergence, 31 g ai/ha, visually evaluated after 13 to 15 days; for Johnsongrass plant response rating / Plant response rating, Johnsongrass: postemergence; for Johnsongrass plant response rating: 62 g ai/ha, scale 0 to 100
Procedure, shortened: as §2

[13] = tested on: oat, wild; experiment: Test C postemergence; format: in vivo, Avena fatua; details: for Plant response rating (scale of 0 to 100 where 0 is no effect and 100 is complete control), Oat, Wild: Postemergence, 31 g ai/ha, visually evaluated after 13 to 15 days; for Oat, Wild plant response rating / Plant response rating, Oat, Wild: postemergence; for Oat, Wild plant response rating: 62 g ai/ha, scale 0 to 100
Procedure, shortened: as §2

[14] = 500 g ai/ha, visual injury after approx. 10 days, 0 to 100 scale (0 no effect, 100 complete control)
[15] = Postemergence, 500 g ai/ha, 0 to 100 scale (0 no effect, 100 complete control)
[16] = postemergence, 125 g ai/ha, about 10 days, visual rating on 0 to 100 scale (0 no effect, 100 complete control)
[17] = Postemergence, 125 g ai/ha, 0 to 100 scale, 0 no effect, 100 complete control
[18] = 31 g ai/ha, visual rating, scale 0 to 100 (0 no effect, 100 complete control), 13 to 15 days
[19] = 62 g ai/ha, scale 0 to 100 (0 no effect, 100 complete control), 13 to 15 days
[20] = 250 g ai/ha, scale 0 to 100, 0 is no effect, 100 is complete control
[21] = postemergence, 250 g ai/ha, scale 0 to 100 (0 no effect, 100 complete control)
[22] = postemergence, 125 g ai/ha, scale 0 to 100, 0 no effect, 100 complete control
[23] = 250 g ai/ha, scale 0 to 100 (0 no effect, 100 complete control)
[24] = 125 g ai/ha, scale 0 to 100, 0 no effect, 100 complete control
[25] = 125 g ai/ha, visual injury, 0 to 100 scale, approx. 10 days

Compound	Barnyardgrass plant response rating [1, 14]	Corn plant response rating [2, 14]	Barnyardgrass plant response rating [3, 15]	Barnyardgrass plant response rating [3, 16]	Velvetleaf plant response rating [4, 15]	Wheat plant response rating [5, 15]	Plant response rating, Sedge, Umbrella [6]	Ryegrass, Italian plant response rating [7, 18]	Ryegrass, Italian plant response rating [7, 19]	Plant response rating, Ryegrass, Italian ([7]; 13 to 15 days)	Pigweed plant response rating [8, 18]	Pigweed plant response rating [8, 19]	Plant response rating, Pigweed ([8]; 13 to 15 days)	Soybean plant response rating [9, 18]	Soybean plant response rating [9, 19]	Plant response rating, Soybean ([9]; 13 to 15 days)	Waterhemp plant response rating [10, 18]	Waterhemp plant response rating [10, 19]	Plant response rating, Waterhemp ([10]; 13 to 15 days)	Plant response rating, Ryegrass, Italian [11, 21]	also measured
CCCc1cc(C(=O)NC2CC2)nn1Cc1cc(C(F)(F)F)nn1C [Compound 202]	100	40	100	90	90	80	80	5	50	90	100	100	100	65	70	85	100	100	100	5	Barnyardgrass plant response rating (0 to 100 scale, 0 is no effect, 100 is complete control) ([1]; 125 g ai/ha, visual injury approx. 10 days after treatment): 90; Corn plant response rating (0 to 100 scale) ([2]; 125 g ai/ha): 10; Velvetleaf plant response rating [4, 17]: 70; Wheat plant response rating [5, 17]: 60; Ryegrass, Italian plant response rating [7, 20]: 90; Pigweed plant response rating [8, 20]: 100; Soybean plant response rating [9, 20]: 98; Waterhemp plant response rating [10, 20]: 100; Plant response rating, Ryegrass, Italian [11, 22]: 5; Plant response rating (scale of 0 to 100 where 0 is no effect and 100 is complete control), Johnsongrass [12]: 0; Johnsongrass plant response rating [12]: 5; Plant response rating, Johnsongrass [12, 23]: 25; Plant response rating, Johnsongrass [12, 24]: 5; Plant response rating (scale of 0 to 100 where 0 is no effect and 100 is complete control), Oat, Wild [13]: 5; Oat, Wild plant response rating [13]: 5; Plant response rating, Oat, Wild [13, 23]: 30; Plant response rating, Oat, Wild [13, 24]: 10
CCONC(=O)c1cc(CC)n(Cc2ccnc(OC(F)F)c2)n1 [Compound 131]	100	90	90	80	100	90	90	15	55	85	100	100	100	30	40	85	100	100	100	10	Barnyardgrass plant response rating [1, 25]: 100; Corn plant response rating [2, 25]: 60; Velvetleaf plant response rating [4, 16]: 90; Wheat plant response rating [5, 16]: 80; Plant response rating (scale of 0 to 100), Ryegrass, Italian ([7]; Preemergence, 250 g ai/ha): 95; Plant response rating (scale of 0 to 100), Pigweed ([8]; Preemergence, 250 g ai/ha): 100; Plant response rating (scale of 0 to 100), Soybean ([9]; Preemergence, 250 g ai/ha): 98; Plant response rating (scale of 0 to 100), Waterhemp ([10]; Preemergence, 250 g ai/ha): 100; Plant response rating (scale of 0 to 100 where 0 is no effect and 100 is complete control), Ryegrass, Italian [11]: 5; Ryegrass, Italian plant response rating ([11]; postemergence, 62 g ai/ha, scale 0 to 100): 5; Plant response rating, Ryegrass, Italian [11, 22]: 10; Plant response rating (scale of 0 to 100 where 0 is no effect and 100 is complete control), Johnsongrass [12]: 0; Johnsongrass plant response rating [12]: 0; Plant response rating, Johnsongrass [12, 23]: 10; Plant response rating, Johnsongrass [12, 24]: 0; Plant response rating (scale of 0 to 100 where 0 is no effect and 100 is complete control), Oat, Wild [13]: 5; Oat, Wild plant response rating [13]: 10; Plant response rating, Oat, Wild [13, 23]: 10; Plant response rating, Oat, Wild [13, 24]: 15
O=C(NC1CC1)c1cc(CCCl)n(Cc2ccnc(C(F)(F)F)c2)n1 [Compound 144]	100	80	90	70	90	90	95	5	30	85	98	100	100	5	50	80	98	98	100	5	Barnyardgrass plant response rating [1, 25]: 100; Corn plant response rating (0 to 100 scale) ([2]; 125 g ai/ha): 10; Velvetleaf plant response rating [4, 16]: 80; Wheat plant response rating [5, 16]: 50; Ryegrass, Italian plant response rating [7, 20]: 90; Pigweed plant response rating [8, 20]: 100; Soybean plant response rating [9, 20]: 98; Waterhemp plant response rating [10, 20]: 100; Plant response rating (scale of 0 to 100 where 0 is no effect and 100 is complete control), Ryegrass, Italian [11]: 5; Plant response rating, Ryegrass, Italian [11, 22]: 5; Plant response rating (scale of 0 to 100 where 0 is no effect and 100 is complete control), Johnsongrass [12]: 5; Johnsongrass plant response rating [12]: 5; Plant response rating, Johnsongrass [12, 23]: 15; Plant response rating, Johnsongrass [12, 24]: 10; Plant response rating (scale of 0 to 100 where 0 is no effect and 100 is complete control), Oat, Wild [13]: 15; Oat, Wild plant response rating [13]: 10; Plant response rating, Oat, Wild [13, 23]: 45; Plant response rating, Oat, Wild [13, 24]: 20

Source: patent US20150105252A1, “SUBSTITUTED PYRAZOLES AS HERBICIDES” (E I DU PONT DE NEMOURS AND COMPANY, priority 2013, published 2015)
